Measured values as given in patent US8003660B2, “Modulators of muscarinic receptors” (Vertex Pharmaceuticals Incorporated, priority 2006, dated 2011).
Read-outs that look alike come from different tables or passages of the source.

Legend:
Type in all cases: cell-based
[1] = molecular target: T1, M1 muscarinic receptor (Homo sapiens, UniProt P11229); test: Functional mobilization of intracellular calcium (FLIPR) in CHO cells expressing M1; details: for EC50: CHO cells expressing M1, FLIPR calcium; for Emax: CHO; for M1 Activity: CHO cells expressing M1, FLIPR calcium assay
T1 construct: expressed in transfected cells; host or cells: CHO (M1-CHO)
T1 sequence (P11229 1-460): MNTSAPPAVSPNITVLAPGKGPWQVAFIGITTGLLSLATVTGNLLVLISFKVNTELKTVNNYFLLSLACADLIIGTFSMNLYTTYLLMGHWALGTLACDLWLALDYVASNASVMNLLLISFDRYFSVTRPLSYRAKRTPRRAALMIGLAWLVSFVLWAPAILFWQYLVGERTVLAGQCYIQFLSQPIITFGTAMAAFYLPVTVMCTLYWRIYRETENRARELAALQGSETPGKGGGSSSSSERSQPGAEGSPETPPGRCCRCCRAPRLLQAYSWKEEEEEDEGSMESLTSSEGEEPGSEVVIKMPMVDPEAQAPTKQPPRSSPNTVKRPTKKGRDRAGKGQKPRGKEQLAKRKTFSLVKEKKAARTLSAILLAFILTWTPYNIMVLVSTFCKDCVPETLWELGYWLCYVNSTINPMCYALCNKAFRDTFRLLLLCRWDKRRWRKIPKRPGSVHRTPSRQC
Method in brief: (§1)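 Calcium flux is read on FLIPR over 60 sec at 488/540 nm in muscarinic-receptor CHO lines. Antagonist mode adds carbachol at EC80 after 15 min compound preincubation or with simultaneous co-application. Agonist mode adds compound alone. Cells carry Fluo-3 or Calcium 3 dye in probenecid-containing pH 7.4 buffer, 0.5% DMSO final.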

[2] = molecular target: T2, M2 muscarinic receptor (Homo sapiens, UniProt P08172); test: Functional mobilization of intracellular calcium (FLIPR) in CHO cells expressing M2; details: for EC50: CHO cells expressing M2, FLIPR calcium; for Emax: CHO; for M2 Activity: CHO cells expressing M2, FLIPR calcium assay
T2 construct: expressed in transfected cells; host or cells: CHO (M2-CHO)
T2 sequence (P08172 1-466): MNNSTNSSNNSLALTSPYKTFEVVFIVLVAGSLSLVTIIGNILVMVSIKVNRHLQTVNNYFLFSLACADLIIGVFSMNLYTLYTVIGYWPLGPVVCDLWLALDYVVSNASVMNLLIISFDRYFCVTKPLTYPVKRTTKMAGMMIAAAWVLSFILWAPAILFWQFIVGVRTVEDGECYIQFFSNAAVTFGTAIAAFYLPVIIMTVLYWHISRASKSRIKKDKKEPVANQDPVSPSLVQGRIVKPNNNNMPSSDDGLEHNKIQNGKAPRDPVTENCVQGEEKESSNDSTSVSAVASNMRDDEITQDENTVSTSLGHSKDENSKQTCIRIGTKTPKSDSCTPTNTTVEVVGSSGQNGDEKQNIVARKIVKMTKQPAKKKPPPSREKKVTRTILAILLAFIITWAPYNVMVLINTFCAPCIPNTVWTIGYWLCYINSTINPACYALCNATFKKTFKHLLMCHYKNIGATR
Method in brief: as §1

[3] = molecular target: T3, M3 muscarinic receptor (Homo sapiens, UniProt P20309); test: Functional mobilization of intracellular calcium (FLIPR) in CHO cells expressing M3; details: for EC50: CHO cells expressing M3, FLIPR calcium; for Emax: CHO; for M3 Activity: CHO cells expressing M3, FLIPR calcium assay
T3 construct: expressed in transfected cells; host or cells: CHO (M3-CHO)
Method in brief: as §1

[4] = molecular target: T4, M4 muscarinic receptor (Homo sapiens, UniProt P08173); test: Functional mobilization of intracellular calcium (FLIPR) in CHO cells expressing M4; details: for EC50: CHO cells expressing M4, FLIPR calcium; for Emax: CHO; for M4 Activity: CHO cells expressing M4, FLIPR calcium assay
T4 construct: expressed in transfected cells; host or cells: CHO (M4-CHO)
T4 sequence (P08173 1-479): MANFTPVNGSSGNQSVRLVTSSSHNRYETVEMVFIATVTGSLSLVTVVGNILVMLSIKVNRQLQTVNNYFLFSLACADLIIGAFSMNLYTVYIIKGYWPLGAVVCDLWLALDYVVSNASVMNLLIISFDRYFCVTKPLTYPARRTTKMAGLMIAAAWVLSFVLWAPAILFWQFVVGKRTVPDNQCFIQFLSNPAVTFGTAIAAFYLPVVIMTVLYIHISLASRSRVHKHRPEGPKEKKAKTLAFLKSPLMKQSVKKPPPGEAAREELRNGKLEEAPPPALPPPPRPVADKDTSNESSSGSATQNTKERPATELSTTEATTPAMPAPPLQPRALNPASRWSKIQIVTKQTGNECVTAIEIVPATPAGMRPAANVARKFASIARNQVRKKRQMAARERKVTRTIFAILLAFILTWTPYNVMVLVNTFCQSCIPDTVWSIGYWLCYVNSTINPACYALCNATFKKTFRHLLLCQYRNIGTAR
Method in brief: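 Read-out: FLIPR fluorescence (ex 488, em 540 nm) over 60 s. Recombinant CHO lines are dye-loaded (Fluo-3 AM or Calcium 3) with 1 mM probenecid. For antagonist mode, compound is pre-incubated 15 min, or co-applied, then carbachol is added at 3× EC80 per subtype.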

[5] = 100% = maximum response obtained with the Carbachol control, read-out: M1 Efficacy
[6] = 100% = maximum response obtained with the Carbachol control, read-out: M2 Efficacy
[7] = 100% = maximum response obtained with the Carbachol control, read-out: M3 Efficacy
[8] = 100% = maximum response obtained with the Carbachol control, read-out: M4 Efficacy
[9] = 100% efficacy = maximum response obtained with the Carbachol control

T3 sequence (P20309 whole entry): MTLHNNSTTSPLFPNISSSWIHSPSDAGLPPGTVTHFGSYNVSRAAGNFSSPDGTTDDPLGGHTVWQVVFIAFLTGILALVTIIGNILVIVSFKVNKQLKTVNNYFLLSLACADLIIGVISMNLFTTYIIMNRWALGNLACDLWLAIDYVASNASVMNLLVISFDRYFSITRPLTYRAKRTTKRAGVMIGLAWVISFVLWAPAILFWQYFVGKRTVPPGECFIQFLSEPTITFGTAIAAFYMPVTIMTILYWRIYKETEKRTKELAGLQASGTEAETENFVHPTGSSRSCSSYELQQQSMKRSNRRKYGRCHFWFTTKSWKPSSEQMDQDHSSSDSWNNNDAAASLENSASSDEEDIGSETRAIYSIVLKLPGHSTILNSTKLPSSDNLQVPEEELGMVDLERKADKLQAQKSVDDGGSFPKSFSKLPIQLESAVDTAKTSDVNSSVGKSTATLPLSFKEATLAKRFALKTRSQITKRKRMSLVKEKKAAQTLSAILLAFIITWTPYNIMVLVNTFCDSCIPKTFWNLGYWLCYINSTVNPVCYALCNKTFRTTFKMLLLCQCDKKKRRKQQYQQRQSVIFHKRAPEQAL

Structure (SMILES)	EC50 [1] [µM]	Emax [1, 5] [%]	EC50 [2] [µM]	Emax [2, 6] [%]	EC50 [3] [µM]	Emax [3, 7] [%]	EC50 [4] [µM]	Emax [4, 8] [%]	M1 Activity [1]	Emax [1, 9] [%]	M2 Activity [2]	Emax [2, 9] [%]	M3 Activity [3]	Emax [3, 9] [%]	M4 Activity [4]	Emax [4, 9] [%]
Cn1cc(C(=O)N[C@H]2CCC3(CCN(CCC(C)(C)C)CC3)c3ccccc32)cn1 [compound 58]	< 2	25 to 100	< 2	25 to 100	> 5	< 25	< 2	25 to 100								
CCN(C(=O)C1CCOC1)[C@H]1CCC2(CCN(CCC(C)(C)C)CC2)c2ccccc21 (stereo partly shown) [compound 9]	> 5	25 to 100	> 5	< 25	> 5	< 25	< 2	25 to 100								
CC(=O)N1CCCC[C@@H]1C(=O)N[C@H]1CCC2(CCN(CCC(C)(C)C)CC2)c2cc(F)ccc21 [compound 82]	< 2	25 to 100	2 to 5	< 25	> 5	< 25	< 2	25 to 100								
CC(C)CCN1CCC2(CCCc3ccccc32)CC1 [compound 89]	> 5	25 to 100	> 5	< 25	> 5	< 25	< 2	25 to 100								
CC(C)(C)CCN1CCC2(CC[C@@H](NC(=O)C3CCOCC3)c3ccc(F)cc32)CC1 [compound 217]									++ (activity was measured to be from 2.0 μM to 5.0 μM)	25 to 100	+ (activity was measured to be greater than 5.0 μM)	< 25	+ (activity was measured to be greater than 5.0 μM)	< 25	+++ (activity was measured to be less than 2.0 μM)	25 to 100
CC(=O)N1CCCCC1C(=O)N[C@H]1CCC2(CCN(CCC(C)(C)C)CC2)c2ccccc21 (stereo partly shown) [compound 41]	< 2	25 to 100	> 5	< 25	> 5	< 25	< 2	25 to 100								
COCCC(=O)N[C@@H]1CCC2(CCN(CCC(C)(C)C)CC2)c2cc(F)ccc21 [compound 212]									+++ (activity was measured to be less than 2.0 μM)	25 to 100	+ (activity was measured to be greater than 5.0 μM)	< 25	+ (activity was measured to be greater than 5.0 μM)	< 25	+++ (activity was measured to be less than 2.0 μM)	25 to 100
CCN(C(=O)CCC(C)=O)[C@H]1CCC2(CCN(CCC(C)(C)C)CC2)c2ccccc21 [compound 54]	< 2	25 to 100	> 5	< 25	> 5	< 25	< 2	25 to 100								
CC(=O)NCC(=O)N[C@H]1CCC2(CCN(CCC(C)(C)C)CC2)c2cc(F)ccc21 [compound 33]	< 2	25 to 100	< 2	25 to 100	> 5	< 25	< 2	25 to 100								
C[C@H](C(=O)N[C@@H]1CCC2(CCN(CCC(C)(C)C)CC2)c2cc(F)ccc21)N1CCCC1=O [compound 78]	< 2	25 to 100	< 2	25 to 100	> 5	< 25	< 2	25 to 100								
CC(=O)N[C@H]1CC2(CCN(C(C)CC(C)C)CC2)c2ccccc21 (stereo partly shown) [compound 236]									+ (activity was measured to be greater than 5.0 μM)	< 25	+ (activity was measured to be greater than 5.0 μM)	< 25	+ (activity was measured to be greater than 5.0 μM)	< 25	+ (activity was measured to be greater than 5.0 μM)	< 25
